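96-well plates; 48 h exposure; 5 concentrations. Endpoints by linear interpolation between flanking doses. Not reached: highest tested concentration assigned. The concentration for 50% growth inhibition is given as GI50. At the TGI there is no net growth.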
Experiments:
Test in all cases: growth of human tumour cells (NCI), 48 h; in the data active = GI50 below about 0.43 µM; inactive = the rest
[1] = test system: 786-0 renal
[2] = test system: A498 renal
[3] = test system: A549 NSCLC
[4] = test system: ACHN renal
[5] = test system: BT-549 breast
[6] = test system: CAKI-1 renal
[7] = test system: CCRF-CEM leukemia
[8] = test system: COLO 205 colon
[9] = test system: DU-145 prostate
[10] = test system: EKVX NSCLC
[11] = test system: HCC-2998 colon
[12] = test system: HCT-116 colon
[13] = test system: HCT-15 colon
[14] = test system: HL-60(TB) leukemia
[15] = test system: HOP-62 NSCLC
[16] = test system: HOP-92 NSCLC
[17] = test system: HS 578T breast
[18] = test system: HT29 colon
[19] = test system: IGROV1 ovarian
[20] = test system: K-562 leukemia
[21] = test system: KM12 colon
[22] = test system: LOX IMVI melanoma
[23] = test system: M14 melanoma
[24] = test system: MALME-3M melanoma
[25] = test system: MCF7 breast
[26] = test system: MDA-MB-231 breast
[27] = test system: MDA-MB-435
[28] = test system: MOLT-4 leukemia
[29] = test system: NCI-H226 lung
[30] = test system: NCI-H23 lung
[31] = test system: NCI-H460 lung
[32] = test system: NCI-H522 lung
[33] = test system: NCI/ADR-RES ovarian
[34] = test system: OVCAR-3 ovarian
[35] = test system: OVCAR-4 ovarian
[36] = test system: OVCAR-5 ovarian
[37] = test system: OVCAR-8 ovarian
[38] = test system: PC-3 prostate
[39] = test system: RPMI-8226 leukemia
[40] = test system: RXF 393 renal
[41] = test system: SF-268 CNS
[42] = test system: SF-295 CNS
[43] = test system: SF-539 CNS
[44] = test system: SK-MEL-2 melanoma
[45] = test system: SK-MEL-28 melanoma
[46] = test system: SK-MEL-5 melanoma
[47] = test system: SK-OV-3 ovarian
[48] = test system: SN12C renal
[49] = test system: SNB-19 CNS
[50] = test system: SNB-75 CNS
[51] = test system: SR leukemia
[52] = test system: SW-620 colon
[53] = test system: T-47D breast
[54] = test system: TK-10 renal
[55] = test system: U251 CNS
[56] = test system: UACC-257 melanoma
[57] = test system: UACC-62 melanoma
[58] = test system: UO-31 renal
[59] = test system: MDA-N

COc1cc(OC)c(C(=O)/C=C/c2cc3c(cc2OCc2ccccc2)OC(C)(C)CC3)cc1CC=C(C)C
18.2 µM: TGI [27]
10.5 µM: TGI [57]
12.6 µM: TGI [24]
12.3 µM: TGI [5]
17.1 µM: TGI [14] | TGI [40]
8.63 µM: TGI [21]
11.8 µM: TGI [31]
8.8 µM: TGI [43]
15.2 µM: TGI [41]
19.1 µM: TGI [53]
19.3 µM: TGI [7]
16.7 µM: TGI [17]
19.9 µM: TGI [16]
6.41 µM: TGI [12]
10.2 µM: TGI [52]
8.9 µM: TGI [8]
14.3 µM: TGI [35]
> 25 µM: TGI [1] | TGI [3] | TGI [9] | TGI [11] | TGI [19] | TGI [20] | TGI [26] | TGI [28] | TGI [30] | TGI [32] | TGI [33] | TGI [36] | TGI [37] | TGI [38] | TGI [44] | TGI [47] | TGI [48] | TGI [56] | TGI [58]
14.5 µM: TGI [4]
22.8 µM: TGI [51]
9.68 µM: TGI [13]
6.53 µM: TGI [46]
7.17 µM: TGI [22]
16.9 µM: TGI [6]
9.23 µM: TGI [45]
21.8 µM: TGI [2]
11.2 µM: TGI [25]
13.5 µM: TGI [15]
10.8 µM: TGI [55]
22.6 µM: TGI [10]
19.6 µM: TGI [54]
15.8 µM: TGI [42]
13.1 µM: TGI [34] | TGI [50]
9.43 µM: TGI [23]
inactive: GI50 [1] 9.33 µM | GI50 [2] 5.42 µM | GI50 [3] 8.92 µM | GI50 [4] 5.42 µM | GI50 [5] 4.2 µM | GI50 [6] 6.74 µM | GI50 [7] 4.02 µM | GI50 [8] 3.97 µM | GI50 [9] 5.95 µM | GI50 [10] 6.73 µM | GI50 [11] 8.91 µM | GI50 [12] 2.98 µM | GI50 [13] 3.84 µM | GI50 [14] 5.43 µM | GI50 [15] 6.78 µM | GI50 [16] 3.52 µM | GI50 [17] 3.05 µM | GI50 [18] 3.57 µM | GI50 [19] 15 µM | GI50 [20] 4.26 µM | GI50 [21] 3.85 µM | GI50 [22] 3.25 µM | GI50 [23] 3.63 µM | GI50 [24] 4.89 µM | GI50 [25] 3.08 µM | GI50 [26] 10.1 µM | GI50 [27] 4.54 µM | GI50 [28] 7.03 µM | GI50 [29] 6.61 µM | GI50 [30] 6.77 µM | GI50 [31] 4.38 µM | GI50 [32] 7.85 µM | GI50 [33] 6.89 µM | GI50 [34] 4.89 µM | GI50 [35] 4.06 µM | GI50 [36] 13.4 µM | GI50 [37] 4.14 µM | GI50 [38] 5.75 µM | GI50 [39] 2.86 µM | GI50 [40] 5.91 µM | GI50 [41] 4.82 µM | GI50 [42] 4.56 µM | GI50 [43] 4.53 µM | GI50 [44] 6.84 µM | GI50 [45] 4.07 µM | GI50 [46] 3.33 µM | GI50 [47] 7.42 µM | GI50 [48] 7.36 µM | GI50 [49] 6.22 µM | GI50 [50] 2.44 µM | GI50 [51] 2.77 µM | GI50 [52] 4.31 µM | GI50 [53] 3.74 µM | GI50 [54] 8.89 µM | GI50 [55] 4.03 µM | GI50 [56] 13.1 µM | GI50 [57] 3.8 µM | GI50 [58] 13 µM
8.92 µM: TGI [18]
17.3 µM: TGI [49]
11.6 µM: TGI [39]
22.1 µM: TGI [29]

c1cc2c(s1)-c1sccc1C21OCCO1
> 100 µM: TGI [1] | TGI [3] | TGI [4] | TGI [5] | TGI [6] | TGI [7] | TGI [8] | TGI [9] | TGI [10] | TGI [11] | TGI [12] | TGI [13] | TGI [14] | TGI [15] | TGI [18] | TGI [20] | TGI [21] | TGI [22] | TGI [23] | TGI [24] | TGI [25] | TGI [26] | TGI [27] | TGI [59] | TGI [28] | TGI [29] | TGI [30] | TGI [31] | TGI [32] | TGI [33] | TGI [34] | TGI [35] | TGI [36] | TGI [37] | TGI [39] | TGI [41] | TGI [42] | TGI [43] | TGI [44] | TGI [45] | TGI [46] | TGI [48] | TGI [49] | TGI [51] | TGI [54] | TGI [55] | TGI [56] | TGI [57] | TGI [58]
80.9 µM: TGI [53]

Cc1ccc(S(=O)(=O)OC2C(O)C(O)OC2C(c2cc(O)c3c(c2O)C(=O)c2ccccc2C3=O)c2cc(O)c3c(c2O)C(=O)c2ccccc2C3=O)cc1 (centres undefined)
8.67 µM: TGI [39]
6.98 µM: TGI [24]
4.85 µM: TGI [8]
8.9 µM: TGI [6]
4.52 µM: TGI [14]
8.93 µM: TGI [30]
8.71 µM: TGI [23]
9.43 µM: TGI [38]
9.33 µM: TGI [42]
> 10 µM: TGI [1] | TGI [3] | TGI [7] | TGI [9] | TGI [10] | TGI [11] | TGI [13] | TGI [15] | TGI [18] | TGI [19] | TGI [20] | TGI [21] | TGI [25] | TGI [26] | TGI [59] | TGI [28] | TGI [37] | TGI [40] | TGI [45] | TGI [46] | TGI [47] | TGI [48] | TGI [50] | TGI [51] | TGI [52] | TGI [53] | TGI [54] | TGI [56] | TGI [57]

Source: PubChem BioAssay (NCI)
